Results from patent publication US9440953B2, “Substituted amino triazoles useful as acidic mammalian chitinase inhibitors” (OncoArendi Therapeutics Sp z o.o., priority 2014, dated 2016).

Target: recombinant human AMCase (Homo sapiens, UniProt Q9BZP6)
Test: Human AMCase Activity Assay
Format: biochemical
Settings: recombinant hAMCase, 4-methylumbelliferyl B-D-N,N′-diacetylchitobioside substrate, citrate buffer pH 5.2, 37° C., 60 minutes
Procedure: Human AMCase Activity Assay
The assay was run in the 96-well plate format, each reaction in the total volume of 100 μL. 4-Methylumbelliferyl B-D-N,N′-diacetylchitobioside hydrate was used as a substrate for the enzyme. Upon hydrolysis by AMCase, the substrate releases 4-methylumbelliferyl (4MU) that, when ionized in basic pH, emits fluorescence at 460 nm.
Briefly, 40 μL of a substrate was added to each well, followed by 10 μL of compound dilution and 50 μL of hAMCase recombinant enzyme solution. […] The fluorescence of the reaction product was measured in Perkin Elmer Envision fluorescent plate reader at an excitation wavelength of 355 nm.

recombinant human AMCase, sequence (Q9BZP6 22-476): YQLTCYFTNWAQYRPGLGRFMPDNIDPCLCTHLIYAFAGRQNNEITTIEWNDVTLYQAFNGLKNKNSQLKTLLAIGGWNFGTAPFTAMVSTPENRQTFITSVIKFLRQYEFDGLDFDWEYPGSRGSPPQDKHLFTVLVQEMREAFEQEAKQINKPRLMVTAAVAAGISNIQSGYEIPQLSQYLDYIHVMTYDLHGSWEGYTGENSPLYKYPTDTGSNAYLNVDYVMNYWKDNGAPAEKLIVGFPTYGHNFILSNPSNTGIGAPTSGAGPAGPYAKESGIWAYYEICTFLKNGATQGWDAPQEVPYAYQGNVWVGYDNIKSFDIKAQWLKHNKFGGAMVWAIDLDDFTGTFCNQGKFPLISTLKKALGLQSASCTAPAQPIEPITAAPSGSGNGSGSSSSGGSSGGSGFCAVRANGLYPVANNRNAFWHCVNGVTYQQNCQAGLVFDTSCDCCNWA

| SMILES | IC50 [nM] |
| --- | --- |
| CC(=O)NS(=O)(=O)c1cccc(CN(CCc2ccc(Br)cc2)C2CCN(c3nc(N)n[nH]3)CC2)c1 [Example 18, N-((3-(((1-(3-amino-1H-1,2,4-triazol-5-yl)piperidin-4-yl)(4-bromophenethyl)-amino)methyl)phenyl)sulfonyl)acetamide] | 1 to 10 |
| Nc1n[nH]c(N2CCC(N(CCc3ccc(Cl)cc3)Cc3cccc(S(=O)(=O)NCC(F)(F)F)c3)CC2)n1 [Example 19, 3-(((1-(3-amino-1H-1,2,4-triazol-5-yl)piperidin-4-yl)(4-chlorophenethyl)amino)-methyl)-N-(2,2,2-trifluoroethyl)benzenesulfonamide] | 10 to 100 |
| Nc1n[nH]c(N2CCC(N(CCc3ccc(Cl)cc3)CC(=O)Nc3ccccc3)CC2)n1 [Example 21, 2-((1-(3-amino-1H-1,2,4-triazol-5-yl)piperidin-4-yl)(4-chlorophenethyl)amino)-N-phenylacetamide] | 100 to 1000 |
| CC(C)NC(=O)CN(CCc1ccc(Cl)cc1)C1CCN(c2nc(N)n[nH]2)CC1 [Example 22, 2-((1-(3-amino-1H-1,2,4-triazol-5-yl)piperidin-4-yl)(4-chlorophenethyl)amino)-N-isopropylacetamide] | 100 to 1000 |
| CS(=O)(=O)NCCCN(CCc1ccc(Br)cc1)C1CCN(c2nc(N)n[nH]2)CC1 [Example 23, N-(3-((1-(3-amino-1H-1,2,4-triazol-5-yl)piperidin-4-yl)(4-bromophenethyl)-amino)propyl)methanesulfonamide] | 1 to 10 |
| Cc1ccc(S(=O)(=O)NCCCN(CCc2ccc(Br)cc2)C2CCN(c3nc(N)n[nH]3)CC2)cc1 [Example 24, N-(3-((1-(3-amino-1H-1,2,4-triazol-5-yl)piperidin-4-yl)(4-bromophenethyl)-amino)propyl)-4-methylbenzenesulfonamide] | 1 to 10 |
| Nc1n[nH]c(N2CCC(N(CCC(=O)O)CCc3ccc(Cl)cc3)CC2)n1 [Example 26, 3-((1-(3-amino-1H-1,2,4-triazol-5-yl)piperidin-4-yl)(4-chlorophenethyl)-amino)propanoic acid] | 1000 to 10000 |
| Nc1n[nH]c(N2CCC(N(CCCC(=O)O)CCc3ccc(Cl)cc3)CC2)n1 [Example 27, 4-((1-(3-amino-1H-1,2,4-triazol-5-yl)piperidin-4-yl)(4-chlorophenethyl)-amino)butanoic acid] | 100 to 1000 |
| Nc1n[nH]c(N2CCC(N(CCc3ccc(Cl)cc3)C(CC(=O)O)c3ccc(Cl)cc3)CC2)n1 (centres unmarked) [Example 28, 3-((1-(3-amino-1H-1,2,4-triazol-5-yl)piperidin-4-yl)(4-chlorophenethyl)amino)-3-(4-chlorophenyl)propanoic acid] | 1000 to 10000 |
| Nc1n[nH]c(N2CCC(N(CCc3ccc(Cl)cc3)CC(C(=O)O)c3ccc(Cl)cc3)CC2)n1 (centres unmarked) [Example 29, 3-((1-(3-amino-1H-1,2,4-triazol-5-yl)piperidin-4-yl)(4-chlorophenethyl)amino)-2-(4-chlorophenyl)propanoic acid] | 10 to 100 |
| Nc1n[nH]c(N2CCC(N(CCc3ccc(Cl)cc3)CC3(C(=O)O)CC3)CC2)n1 [Example 30, 1-(((1-(3-amino-1H-1,2,4-triazol-5-yl)piperidin-4-yl)(4-chlorophenethyl)amino)-methyl)cyclopropanecarboxylic acid] | 1000 to 10000 |
| CS(=O)(=O)Nc1ccccc1CN(CCc1ccc(Cl)cc1)C1CCN(c2nc(N)n[nH]2)CC1 [Example 31, N-(2-(((1-(3-amino-1H-1,2,4-triazol-5-yl)piperidin-4-yl)(4-chlorophenethyl)-amino)methyl)phenyl)methanesulfonamide] | 10 to 100 |
| CS(=O)(=O)Nc1cccc(CN(CCc2ccc(Cl)cc2)C2CCN(c3nc(N)n[nH]3)CC2)c1 [Example 32, N-(3-(((1-(3-amino-1H-1,2,4-triazol-5-yl)piperidin-4-yl)(4-chlorophenethyl)-amino)methyl)phenyl)methanesulfonamide] | 1 to 10 |
| CS(=O)(=O)Nc1ccc(CN(CCc2ccc(Cl)cc2)C2CCN(c3nc(N)n[nH]3)CC2)cc1 [Example 33, N-(4-(((1-(3-amino-1H-1,2,4-triazol-5-yl)piperidin-4-yl)(4-chlorophenethyl)-amino)methyl)phenyl)methanesulfonamide] | 1 to 10 |
| NC(=O)c1ccc(CN(CCc2ccc(Br)cc2)C2CCN(c3nc(N)n[nH]3)CC2)cc1 [Example 34, 4-(((1-(3-amino-1H-1,2,4-triazol-5-yl)piperidin-4-yl)(4-bromophenethyl)-amino)methyl)benzamide] | 1 to 10 |
| CNC(=O)c1ccc(CN(CCc2ccc(Br)cc2)C2CCN(c3nc(N)n[nH]3)CC2)cc1 [Example 35, 4-(((1-(3-amino-1H-1,2,4-triazol-5-yl)piperidin-4-yl)(4-bromophenethyl)-amino)methyl)-N-methylbenzamide] | 1 to 10 |
| Nc1n[nH]c(N2CCC(N(CCc3ccc(Cl)cc3)Cc3cccc(-c4nnn[nH]4)c3)CC2)n1 [Example 36, N-(3-(1H-tetrazol-5-yl)benzyl)-1-(3-amino-1H-1,2,4-triazol-5-yl)-N-(4-chlorophenethyl)piperidin-4-amine] | 1 to 10 |
| CC(=O)NS(=O)(=O)CCN(CCc1ccc(Cl)cc1)C1CCN(c2nc(N)n[nH]2)CC1 [Example 38, N-((2-((1-(3-amino-1H-1,2,4-triazol-5-yl)piperidin-4-yl)(4-chlorophenethyl)-amino)ethyl)sulfonyl)acetamide] | 10 to 100 |
| CS(=O)(=O)NC(=O)c1ccc(CN(CCc2ccc(Cl)cc2)C2CCN(c3nc(N)n[nH]3)CC2)cc1 [Example 39, 4-(((1-(3-amino-1H-1,2,4-triazol-5-yl)piperidin-4-yl)(4-chlorophenethyl)-amino)methyl)-N-(methylsulfonyl)benzamide] | 1 to 10 |
| CS(=O)(=O)NC(=O)c1cccc(CN(CCc2ccc(Cl)cc2)C2CCN(c3nc(N)n[nH]3)CC2)c1 [Example 40, 3-(((1-(3-amino-1H-1,2,4-triazol-5-yl)piperidin-4-yl)(4-chlorophenethyl)amino)-methyl)-N-(methylsulfonyl)benzamide] | 1 to 10 |
| CS(=O)(=O)NC(=O)c1cc(CN(CCc2ccc(Cl)cc2)C2CCN(c3nc(N)n[nH]3)CC2)ccc1Cl [Example 41, 5-(((1-(3-amino-1H-1,2,4-triazol-5-yl)piperidin-4-yl)(4-chlorophenethyl)amino)-methyl)-2-chloro-N-(methylsulfonyl)benzamide] | 10 to 100 |
| Cc1ccc(S(=O)(=O)NCCN(CCc2ccc(Br)cc2)C2CCN(c3nc(N)n[nH]3)CC2)cc1 [Example 42, N-(2-((1-(3-amino-1H-1,2,4-triazol-5-yl)piperidin-4-yl)(4-bromophenethyl)-amino)ethyl)-4-methylbenzenesulfonamide] | 1 to 10 |
| Nc1n[nH]c(N2CCC(N(CCc3ccc(Cl)cc3)Cc3nnn[nH]3)CC2)n1 [Example 43, N-((1H-tetrazol-5-yl)methyl)-1-(3-amino-1H-1,2,4-triazol-5-yl)-N-(4-chlorophenethyl)piperidin-4-amine] | 10 to 100 |
